In ChEMBL document CHEMBL1201862, “PubChem BioAssay data set” (2004):
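Following 48 hours of exposure in 96-well plates, responses at five concentrations were used to interpolate endpoints linearly. GI50 = concentration required for 50% inhibition of growth.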 Active and inactive are the calls of the source. No stated cut-off is given here; in the data, active = GI50 up to about 1.1 µM and inactive = higher.

Legend:
Experiment in all cases: NCI-60 cell line screen, 48 h
K562 = system: K562
HCT-15 = system: HCT-15
MDA-N = system: MDA-N
MOLT-4 = system: MOLT-4
NCI-H23 = system: NCI-H23
EKVX = system: EKVX
NCI/ADR-RES = system: NCI/ADR-RES
A549 = system: A549
OVCAR-8 = system: OVCAR-8
NCI-H226 = system: NCI-H226
KM12 = system: KM12
OVCAR-4 = system: OVCAR-4
HL-60 = system: HL-60
UACC-257 = system: UACC-257
MDA-MB-435 = system: MDA-MB-435
IGROV-1 = system: IGROV-1
SF-268 = system: SF-268
MDA-MB-231 = system: MDA-MB-231
Malme-3M = system: Malme-3M
BT-549 = system: BT-549

| SMILES | GI50 (K562) | GI50 (HCT-15) [µM] | GI50 (MDA-N) | GI50 (MOLT-4) | GI50 (NCI-H23) | GI50 (EKVX) | GI50 (NCI/ADR-RES) | GI50 (A549) | GI50 (OVCAR-8) | GI50 (NCI-H226) | GI50 (KM12) | GI50 (OVCAR-4) | GI50 (HL-60) | GI50 (UACC-257) | GI50 (MDA-MB-435) | GI50 (IGROV-1) | GI50 (SF-268) | GI50 (MDA-MB-231) | GI50 (Malme-3M) | GI50 (BT-549) |
| --- | --- | --- | --- | --- | --- | --- | --- | --- | --- | --- | --- | --- | --- | --- | --- | --- | --- | --- | --- | --- |
| Nc1ccc2ccc(N3CCNCC3)nc2n1 | 50.8 µM (inactive) | 76.6 | 75 µM (inactive) | 32.4 µM (inactive) | 56.8 µM (inactive) | 74.1 µM (inactive) | > 100 µM (inactive) | > 100 µM (inactive) | > 100 µM (inactive) | 21.4 µM (inactive) | 48.2 µM (inactive) | 57.7 µM (inactive) | 34 µM (inactive) | > 100 µM (inactive) | 49.7 µM (inactive) | 19.5 µM (inactive) | 44.7 µM (inactive) | 37.3 µM (inactive) | 38.9 µM (inactive) | 65.8 µM (inactive) |
| COc1ccc(-c2cc(=O)c3c(OC)c(OC)c(OC)c(OC)c3o2)cc1OC [NOBILETIN] | 36.3 µM (inactive) | 26.5 | 49.9 µM (inactive) | 25.2 µM (inactive) | 47.1 µM (inactive) | 56.2 µM (inactive) | 20.3 µM (inactive) | 42.8 µM (inactive) | 29.6 µM (inactive) | 91.6 µM (inactive) |  | 28 µM (inactive) | 17.3 µM (inactive) | 33.5 µM (inactive) | 45.1 µM (inactive) | 49.2 µM (inactive) | 66.8 µM (inactive) | 34.5 µM (inactive) | > 100 µM (inactive) | 62.7 µM (inactive) |
| S=C1CCSc2c(ccc3ccccc23)N1 | 56 µM (inactive) | > 100 | > 100 µM (inactive) | 30 µM (inactive) | > 100 µM (inactive) | 77.6 µM (inactive) | > 100 µM (inactive) | > 100 µM (inactive) | > 100 µM (inactive) | > 100 µM (inactive) | > 100 µM (inactive) | 46.7 µM (inactive) | 33.2 µM (inactive) | > 100 µM (inactive) | > 100 µM (inactive) | > 100 µM (inactive) | 58.6 µM (inactive) | > 100 µM (inactive) | > 100 µM (inactive) | 67.1 µM (inactive) |
| Cc1ccc([S+](c2ccccc2)c2cc(C)ccc2C)cc1.O=C(OC(C(=O)[O-])C(OC(=O)c1ccccc1)C(=O)O)c1ccccc1 (stereo not given) | 2.53 µM (inactive) | > 100 | 3.89 µM (inactive) | 26.5 µM (inactive) | 3.82 µM (inactive) | > 100 µM (inactive) | > 100 µM (inactive) | 8.87 µM (inactive) | 6.7 µM (inactive) | 15.4 µM (inactive) | 3.91 µM (inactive) | 46 µM (inactive) | 3.13 µM (inactive) | 1.96 µM (inactive) | 5.3 µM (inactive) | 10.7 µM (inactive) | 22.1 µM (inactive) | 16.9 µM (inactive) | 44.9 µM (inactive) | 3.37 µM (inactive) |
| N/C(=N\N/C=C1\C=Nc2cc(C(F)(F)F)ccc2C1=O)NO | 7.67 µM (inactive) | > 10 | > 10 µM (inactive) | > 10 µM (inactive) | > 10 µM (inactive) | > 10 µM (inactive) | > 10 µM (inactive) | > 10 µM (inactive) | > 10 µM (inactive) | > 10 µM (inactive) | 0.001 µM (active) | > 10 µM (inactive) | > 10 µM (inactive) | > 10 µM (inactive) | > 10 µM (inactive) | > 10 µM (inactive) | > 10 µM (inactive) | > 10 µM (inactive) | > 10 µM (inactive) | > 10 µM (inactive) |
| CN(C)Cc1cc(C(F)(F)F)ccc1C(O)(c1ccccc1)c1ccccc1 | 6.9 µM (inactive) | 14.7 | 14.4 µM (inactive) | 15.7 µM (inactive) | 26.2 µM (inactive) | 15.4 µM (inactive) | 15.2 µM (inactive) | 15 µM (inactive) | 17.9 µM (inactive) | 15.1 µM (inactive) | 16.9 µM (inactive) | 16.4 µM (inactive) | 7.76 µM (inactive) | 11.6 µM (inactive) | 18.8 µM (inactive) | 15.9 µM (inactive) | 15.3 µM (inactive) | 11.9 µM (inactive) | 15.2 µM (inactive) | > 10 µM (inactive) |
| CNC(=O)C(C)NC(=O)C(Cc1ccccc1)NC(=O)c1ccccc1 (stereo not given) | > 100 µM (inactive) | > 100 | > 100 µM (inactive) | > 100 µM (inactive) | > 100 µM (inactive) | > 100 µM (inactive) | > 100 µM (inactive) | > 100 µM (inactive) | > 100 µM (inactive) | > 100 µM (inactive) | > 100 µM (inactive) | > 100 µM (inactive) | > 100 µM (inactive) | > 100 µM (inactive) | > 100 µM (inactive) | > 100 µM (inactive) | > 100 µM (inactive) | > 100 µM (inactive) | > 100 µM (inactive) | > 100 µM (inactive) |
| O=C1CCc2c(sc3ncnc(Nc4cccc(Br)c4)c23)C1 | 2.75 µM (inactive) | 3.24 | 2.65 µM (inactive) | 3.2 µM (inactive) | 3.01 µM (inactive) | 2.19 µM (inactive) | 2.94 µM (inactive) | 3.11 µM (inactive) | 3.26 µM (inactive) | 4.06 µM (inactive) | 3.6 µM (inactive) | 2.52 µM (inactive) | 4.32 µM (inactive) | 3.55 µM (inactive) | 1.94 µM (inactive) | 1.68 µM (inactive) | 3.92 µM (inactive) | 3.27 µM (inactive) | 1.76 µM (inactive) | 3.77 µM (inactive) |
| CN1C(=O)C(C(=O)Nc2ccccn2)C2C[C@@]1(C)Oc1ccccc12 (stereo not given in full) | > 100 µM (inactive) | > 100 | > 100 µM (inactive) | 62.7 µM (inactive) | > 100 µM (inactive) | 63.5 µM (inactive) | > 100 µM (inactive) | > 100 µM (inactive) | > 100 µM (inactive) | > 100 µM (inactive) | > 100 µM (inactive) | > 100 µM (inactive) | > 100 µM (inactive) | > 100 µM (inactive) | > 100 µM (inactive) | > 100 µM (inactive) | > 100 µM (inactive) | > 100 µM (inactive) | > 100 µM (inactive) | > 100 µM (inactive) |
| CN1CN(c2ccccc2)C2(CCN(CCCSc3ccccc3NC(=O)/C=C/c3ccccc3)CC2)C1=O | 3.85 µM (inactive) | 6.92 | 2.57 µM (inactive) | 2 µM (inactive) | 4.61 µM (inactive) | 4.98 µM (inactive) | 3.87 µM (inactive) | 6.93 µM (inactive) | 6.19 µM (inactive) | 2.24 µM (inactive) | 4.59 µM (inactive) | 3.59 µM (inactive) | 3.95 µM (inactive) | 1.78 µM (inactive) | 2.61 µM (inactive) | 2.86 µM (inactive) | 4.21 µM (inactive) | 1.73 µM (inactive) | 2.15 µM (inactive) | 2.54 µM (inactive) |
| Nc1nc2c(c(=O)[nH]1)N=C(COP(=O)(O)OP(=O)(O)O)CN2 | > 100 µM (inactive) | > 100 | > 100 µM (inactive) | > 100 µM (inactive) | > 100 µM (inactive) | > 100 µM (inactive) | > 100 µM (inactive) | > 100 µM (inactive) | > 100 µM (inactive) | > 100 µM (inactive) | > 100 µM (inactive) |  | > 100 µM (inactive) | > 100 µM (inactive) | > 100 µM (inactive) | > 100 µM (inactive) | > 100 µM (inactive) | > 100 µM (inactive) | > 100 µM (inactive) | > 100 µM (inactive) |
| O=C1N[C@H]2[C@H](O)[C@H](O)[C@@H](O)[C@H](O)[C@@H]2c2cc3c(c(O)c21)OCO3 [PANCRATISTATIN] | 0.0373 µM (active) | 0.045 | 0.0372 µM (active) | 0.0309 µM (active) | 0.0445 µM (active) |  | 0.0622 µM (active) | 0.0893 µM (active) | 0.0336 µM (active) | 0.0375 µM (active) | 0.0393 µM (active) | 0.0307 µM (active) | 0.0364 µM (active) | 0.0429 µM (active) | 0.0372 µM (active) | 0.0516 µM (active) | 0.0391 µM (active) | 0.0344 µM (active) | 0.0352 µM (active) | 0.0493 µM (active) |
| CCN(CC)CC(O)CNc1ccc(NCC2CO2)c2c1C(=O)c1ccccc1C2=O (stereo not given) | 0.0479 µM (active) | 0.638 | 0.323 µM (active) |  | 0.499 µM (active) | 1.74 µM (inactive) | 0.0993 µM (active) | 1.03 µM (active) | 0.0661 µM (active) | 1.32 µM (inactive) | 0.294 µM (active) | 1.18 µM (inactive) | 0.0236 µM (active) | 1.48 µM (inactive) | 0.211 µM (active) | 1.63 µM (inactive) | 0.0619 µM (active) | 0.536 µM (active) | 1.93 µM (inactive) | 0.194 µM (active) |
| C=CCc1cc(C=C(C#N)C#N)cc(OC)c1O | 62.2 µM (inactive) | 67.6 | > 100 µM (inactive) | 40 µM (inactive) | 79.8 µM (inactive) | > 100 µM (inactive) | > 100 µM (inactive) | > 100 µM (inactive) | > 100 µM (inactive) | > 100 µM (inactive) | > 100 µM (inactive) | > 100 µM (inactive) | 28.2 µM (inactive) | > 100 µM (inactive) | 59 µM (inactive) | > 100 µM (inactive) |  | > 100 µM (inactive) | > 100 µM (inactive) | 90.4 µM (inactive) |
